The results in this text go back to patent EP0551200A1, “Protein phosphatase inhibitors for use in therapy” (priority 1992, dated 1993).

The structures appear in SMILES notation. Some results are limits rather than exact numbers.

The test system of one test is IL-6. Put plainly: Northern blot analysis of IL-6 gene expression in human fibroblasts. The test is classed as cell-based. As to conditions: regularly maintained cells. As for the experimental part:
(§1) Quiescent human fibroblasts were incubated with TNF (500 units/ml) (a) or OA (500 nM) (b) for 0, 30, 60 min after which total cellular RNA was extracted. Blots of RNA from these cells were hybridized to radiolabeled (10⁶ cpm/ml) Egr-1 cDNA probe. c, the blot in b was stripped and reprobed with c-jun cDNA. Note: Egr-1 mRNA probe was not completely stripped from the blot. The autoradiograph of the blot is presented. d, regularly maintained cells were incubated wither with no additions (control, 0 time) or with OA for 1, 3, 5, 7 h and Northern analysis was carried out with an IL-6 cDNA probe (ATCC, Rockville, MD, US).
(§2) Preparation of RNA and Northern Analysis - Human fibroblasts (4 x 10⁶) were seeded in 175cm² tissue culture flasks and incubated at 37°C for 6 days in regular medium. The cells were fed with regular medium on day 3. On day 6 the medium was replaced by minimal essential medium containing 0.25% fetal calf serum and incubated for another 48 h to maintain the cells in a quiescent state. Quiescent or regularly maintained cells were treated with a specific agonist for the times indicated (see Fig. 7). The cells were harvested and total cytoplasmic RNA isolated by a one-step guanidinium thiocyanate/phenol/chloroform method. […] The blots were autoradiographed and quantitated by the Visage 2000 Image system (BioImage Products, Ann Arbor, MI, US).

Another test relates to c-jun. Put plainly: Northern blot analysis of c-jun gene expression in human fibroblasts. The test is classed as cell-based. As to conditions: OA 500 nM. The method, then: as §1, §2
The test system of another test is EGFR. Put plainly: Phosphorylation of EGF receptor, immunoprecipitation from 32P-labeled fibroblasts. The test is classed as cell-based, human. As to conditions: 250 nM, 15 min. The method, then:
Phosphorylation of EGFR by TNF, IL-1, EGF, PDGF (indicated as PGF) and okadaic acid (OA). ³²P-Labeled cultures of fibroblast cells were treated with TNF (100 units/ml), IL-1 (100 units/ml), EGF (50 ng/ml), PDGF (32 ng/ml) or OA (250 nM) for 15 min. Control is indicated by 0. The EGFR was immunoprecipitated with anti-EGFR antibody (Oncogene Science, Manhasset, N.Y., US). The proteins were subjected to 7.5% SDS-PAGE and autoradiography.
IL-1, TNF, or Okadaic Acid Treatment Stimulate Phosphorylation of the EGF Receptor - One feature of TNF and IL-1 action is the transmodulation of the EGFR via phosphorylation. Okadaic acid was added to human fibroblasts to see if it can also mimic this effect of TNF and IL-1. ³²P-Labeled human fibroblasts were treated with ligand (TNF, IL-1, EGF, PDGF, or okadaic acid) for 15 min and extracted for analysis. The extracts were immunoprecipitated with anti-EGFR antibodies. The immunoprecipitated EGFR derived from variously treated fibroblasts was analyzed by SDS-PAGE and autoradiography.

With `C=C1[C@@H](O)[C@@H]2O[C@]3(CC[C@H](/C=C/[C@@H](C)[C@@H]4CC(C)=C[C@@]5(O[C@H](C[C@@](C)(O)C(=O)O)CC[C@H]5O)O4)O3)CC[C@H]2O[C@@H]1[C@@H](O)C[C@H](C)[C@H]1O[C@@]2(CCCCO2)CC[C@H]1C` [okadaic acid], the “time of induction of IL-6” value in the test with IL-6 came to 7 h. In the test on c-jun, the “time to induction of c-jun” value is at most 60 min. In addition, the “stimulation of phosphorylation of the EGFR (in words)” value in the test on EGFR is “to an even greater extent than does TNF, IL-1, EGF or PDGF”.
